SMILES strings stand for the structures. “And” between values parts separate entries of the source, which are not always exact repeats. Equal values may be shown once.

One assay addresses T1, GST-YTHDF2 (Homo sapiens, UniProt Q9Y5A9).
T1 construct: made in house
T1 sequence (Q9Y5A9 1-579): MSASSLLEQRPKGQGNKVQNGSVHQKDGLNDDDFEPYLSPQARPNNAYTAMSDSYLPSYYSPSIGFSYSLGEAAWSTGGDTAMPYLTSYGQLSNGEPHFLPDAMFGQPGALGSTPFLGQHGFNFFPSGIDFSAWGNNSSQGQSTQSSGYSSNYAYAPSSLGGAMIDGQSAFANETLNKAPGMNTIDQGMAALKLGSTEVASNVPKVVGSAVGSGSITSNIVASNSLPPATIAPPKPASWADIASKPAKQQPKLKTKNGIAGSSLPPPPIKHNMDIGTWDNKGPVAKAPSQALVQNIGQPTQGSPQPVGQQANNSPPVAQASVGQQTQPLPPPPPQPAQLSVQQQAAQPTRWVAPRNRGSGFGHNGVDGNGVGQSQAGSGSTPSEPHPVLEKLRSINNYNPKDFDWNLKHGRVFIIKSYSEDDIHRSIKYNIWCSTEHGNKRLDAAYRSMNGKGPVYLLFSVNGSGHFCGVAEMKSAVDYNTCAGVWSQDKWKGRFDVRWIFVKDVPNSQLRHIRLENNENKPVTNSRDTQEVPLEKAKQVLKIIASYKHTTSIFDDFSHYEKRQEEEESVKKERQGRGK
Put plainly: HTRF-based binding assay, competition with m6A-oligoRNA, DF2. To be noted: for Single-dose residual signal at 100 µM, DF2: HTRF, 100 µM compound, normalized; for IC50: dose-response, competitor m6A-oligoRNA, read-out: DF2 IC50 (HTRF assay). A general note: In TR-FRET formats the signal depends on donor and acceptor labels being close together.

Another assay deals with T2, GST-YTHDF3 (Homo sapiens, UniProt Q7Z739).
T2 construct: made in house
T2 sequence (Q7Z739 1-585): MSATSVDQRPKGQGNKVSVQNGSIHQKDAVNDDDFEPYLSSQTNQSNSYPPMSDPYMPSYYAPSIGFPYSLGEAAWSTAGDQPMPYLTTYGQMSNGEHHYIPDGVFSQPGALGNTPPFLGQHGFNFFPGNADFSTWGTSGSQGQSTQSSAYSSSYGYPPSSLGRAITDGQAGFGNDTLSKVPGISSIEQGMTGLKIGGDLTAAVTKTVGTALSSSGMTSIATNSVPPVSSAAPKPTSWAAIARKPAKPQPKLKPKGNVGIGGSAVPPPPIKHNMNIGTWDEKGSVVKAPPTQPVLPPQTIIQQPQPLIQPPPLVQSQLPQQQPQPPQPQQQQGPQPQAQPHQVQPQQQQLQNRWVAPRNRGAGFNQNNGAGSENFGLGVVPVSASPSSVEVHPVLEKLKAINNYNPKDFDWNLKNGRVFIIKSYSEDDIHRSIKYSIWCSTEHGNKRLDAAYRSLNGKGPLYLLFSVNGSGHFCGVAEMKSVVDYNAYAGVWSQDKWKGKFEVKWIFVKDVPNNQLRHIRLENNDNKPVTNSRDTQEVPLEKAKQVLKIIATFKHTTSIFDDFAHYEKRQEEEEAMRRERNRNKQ
Kind of assay: HTRF-based binding assay, DF3. Particulars: HTRF, 100 µM compound, normalized. The procedure: The HTRF-based assay was employed to evaluate the selectivity of the series against other DF proteins.
A dose–response experiment on DF1 and DF3 was conducted for compounds 17, 18, 23, and 27 (Figure S5). Compounds 17, 18, and 27 are active on three DF proteins. […] In contrast, compound 23 is selective for DF2, with residual signals (at the highest employed concentration of 62.5 μM) of 51 and 87% for DF1 and DF3, respectively.
GST-YTHDC1, GST-YTHDF1, GST-YTHDF2, and GST-YTHDF3 were purified as previously reported. The HTRF assay was assembled as detailed in ref with the only difference being that the starting concentration of the dose–response experiments used for the IC50 determination was variated dependently from the tested compound. The same protocol was applied to the four proteins. The competitive inhibition data of GST-YTHDF1 (single dose experiment at 100 μM compound concentration and dose–response curves), GST-YTHDF3 (single dose experiment at 100 μM compound concentration and dose–response curves), and GST-YTHDF2 (single dose experiment at 100 μM compound concentration) were normalized as described in ref to mitigate interference. The signal was measured as described in ref .

For another assay, the target named is T3, YTHDC2 (Homo sapiens, UniProt Q9H6S0).
T3 construct: YTH domain of YTHDC2 (residues 1285–1424, cloned into the pGEX-6P-1 vector); made in house; host or cells: Rosetta (DE3) cells (E. coli)
T3 sequence (Q9H6S0 1285-1424): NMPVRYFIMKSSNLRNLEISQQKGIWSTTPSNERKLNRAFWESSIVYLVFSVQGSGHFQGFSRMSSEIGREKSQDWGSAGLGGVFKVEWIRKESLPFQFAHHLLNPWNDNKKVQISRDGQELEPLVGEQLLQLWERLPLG
Put plainly: DNA-fluorescence polarization (FP) competition assay, DC2. It counts as binding. Particulars: Cheng-Prusoff from FP IC50, probe Kd 7 nM; two biological replicates. The procedure:
The binding affinity for DC1 could not be evaluated by HTRF because of interference of the compounds with the assay, which has a smaller assay window when performed with DC1 compared to the DF proteins. Thus, the FP assay was used to evaluate binding to DC1 and DC2.
The N-terminally GST-tagged YTH domain of YTHDC2 (residues 1285–1424, cloned into the pGEX-6P-1 vector) was overexpressed in Rosetta (DE3) cells grown overnight at 20 °C following induction with 0.4 mM isopropyl-β-D-thiogalactopyranoside (IPTG) at an OD600 of 0.8. The cells were harvested and resuspended in a lysis buffer containing 100 mM Tris–HCl (pH 8.0) and 500 mM NaCl. After cell lysis, the lysate was clarified by centrifugation at 48,000g for 1 h, and the soluble proteins were loaded onto a column packed with Glutathione Sepharose 4B (GE Healthcare), then eluted with 20 mM reduced glutathione in lysis buffer. Finally, a size-exclusion chromatography step (HiLoad 16/600 Superdex 200 pg column, GE Healthcare) was performed to further purify the protein in 20 mM Tris–HCl (pH 7.4) and 150 mM NaCl.
For fluorescence polarization (FP) experiments, a 5′-fluorescein-labeled m^6A-DNA probe (5′-FAM-[…](m6A)-CTAAGCT-3′) was synthesized by Microsynth AG.
The final concentration of the fluorescein-labeled DNA was kept constant at 3 nM. For YTHDC2 measurements, the protein concentration was set to 25 nM, while for YTHDF2 measurements, it was set to 10 nM, and for YTHDC1, it was set at 15 nM. The compound concentration was serially diluted to obtain the dose–response curve. The competition experiments were conducted in a final volume of 20 μL in a buffer containing 20 mM Tris–HCl (pH 7.4), 150 mM NaCl, and 0.01% bovine serum albumin (BSA), using a 384-well black flat-bottomed microplate (Corning 3575).
After incubating the mixture for 1 h, the anisotropy values were measured using a Tecan SPARK plate reader with 485/20 nm excitation and 535/25 nm emission polarization filters, suitable for fluorescein, at 25 °C. To obtain the equilibrium dissociation constant (K d), the IC50 values were first derived by fitting a dose–response curve to the data using nonlinear regression analysis in GraphPad Prism. These IC50 values were then converted to K d by using the Cheng–Prusoff equation: Kd=IC50/1+[L]/Kdprobe
IC50 is the observed value from FP assay, [L] is the probe concentration used, and K d ^probe is the binding affinity of probe for the target.
(In general: In fluorescence polarisation assays a small probe gives low polarisation when free and higher when bound to something large.)

In general, IC50 refers to the concentration that inhibits the measured activity by half. The Kd is the equilibrium constant for the complex coming apart. Low values mean a tighter complex, high ones a looser complex. `COc1ccc(-c2csc3[nH]c(=S)[nH]c(=O)c23)cc1` [Compound S76]: on GST-YTHDF2, the “Single-dose residual signal at 100 µM, DF2” value came to 6% and the IC50 was 24 µM. For the same compound, the “Single-dose residual signal at 100 µM, DF3” value on GST-YTHDF3 stood at 12%. The same compound displayed a Kd on YTHDC2 of 54 µM.

`O=c1[nH]c(=S)[nH]c2scc(C3CCCCC3)c12` [Compound S77]: at GST-YTHDF2, the “Single-dose residual signal at 100 µM, DF2” value stood at 12% and the IC50 stood at 33 µM. For the same compound, on GST-YTHDF3, the “Single-dose residual signal at 100 µM, DF3” value is on record as 35%. Moreover, on YTHDC2, the equilibrium dissociation constant (Kd) worked out at 240 µM.

Consider `O=c1[nH]c(=S)[nH]c2sc(Cc3ccccc3)cc12` [Compound S85], for which, on GST-YTHDF2, the “Single-dose residual signal at 100 µM, DF2” value worked out at 13% and the half-inhibitory concentration (IC50) is 33 µM. The “Single-dose residual signal at 100 µM, DF3” value at GST-YTHDF3 was determined as 35%. In addition, the Kd on YTHDC2 worked out at 160 µM.

For `CCOC(=O)c1csc2[nH]c(=S)[nH]c(=O)c12` [Compound S89], at GST-YTHDF2, the “Single-dose residual signal at 100 µM, DF2” value came out at 8% and the IC50 was determined as 62 µM. In addition, the “Single-dose residual signal at 100 µM, DF3” value at GST-YTHDF3 amounted to 16%. The Kd at YTHDC2 was 450 µM and > 400 µM.

Regarding `O=C(O)c1csc2[nH]c(=S)[nH]c(=O)c12` [Compound S90], on GST-YTHDF2, the “Single-dose residual signal at 100 µM, DF2” value turned out to be 14% and the IC50 stood at 60 µM. For the same compound, the “Single-dose residual signal at 100 µM, DF3” value at GST-YTHDF3 is given as 34%. The compound also came in with a dissociation constant (Kd) at YTHDC2 of 240 µM.
